In patent publication US5510356A, “Bisquinolines and processes for their production and use to treat malaria” (priority 1991, dated 1996):
Entries after “also recorded” stand apart in the source; their conditions may differ.

Tests used:
[1] = test system: P. falciparum clone D-6 (Sierra Leone); type: cell-based, Plasmodium falciparum; settings: D-6 clone (resistant to mefloquine)
Description: (§1) In vitro activity against P. falciparum was determined using a modification of the semiautomated microdilution technique of Desjardins et al. (1979) and Milhous et al. (1985). Two P. falciparum malaria parasite clones, designated as Sierra Leone (D-6) and Indochina (W-2), are used in susceptibility testing. The former is resistant to mefloquine, and the latter to CQ, pyrimethamine, sulfadoxine, and quinine. Test compounds are dissolved in dimethylsulfoxide, and solutions serially diluted with culture media. Erythrocytes with 0.25 to 0.5% parasitemia are added to each well of a 96-well microdilution plate to give a final hematocrit of 1.5%. […] Results are reported as […] (ng/mL) values. For a complete description of this assay, see Milhous et al. (1985) and Lin et al. (1987).

[2] = test system: P. falciparum clone W-2 (Indochina); type: cell-based, Plasmodium falciparum
Description: as §1

[3] = test system: P. berghei (strain KBG 173); assay: In vivo activity against P. berghei in mice, single subcutaneous dose 3 days after infection; parameters: species or system Plasmodium berghei; mice
Description: In vivo activity against P. berghei was obtained against a drug-sensitive strain of P. berghei (strain KBG 173) (Osdene et al., 1967). Each test compound is administered subcutaneous to five male mice per dilution in a single subcutaneous dose 3 days after infection. Results are expressed in T-C values which indicate the mean survival time of the treated mice beyond that of the control animals; untreated mice survive on average 6.2 days. Compounds are classified as active (A) when the mean survival time of the treated mice is twice that of the controls (>6.2 days), and curative (C) when one or more test animals live 60 days post-infection. Deaths from 0-2 days post-treatment are attributed to toxicity (T).

P. falciparum = assay: In vitro activity against P. falciparum (both clones, D-6 and W-2); type: cell-based, Plasmodium falciparum; settings: for Resistance Index: IC50 (W2)/IC50 (D6) ratio; for IC50: Plasmodium falciparum, clone not specified; for antimalarial activity (in words): general statement, refers to Table I
Description: as §1

CQ-resistant malaria = settings: cited from earlier work; for activity against malaria / CQ-resistant malaria (in words): literature; for duration of action / toxicity: compared to CQ, Li et al., 1981a, Lin et al., 1982
P. berghei = settings: cited from earlier work
[4] = 40 mg/kg s.c., single dose 3 days post infection, n = 5
[5] = 160 mg/kg s.c., single dose 3 days post infection, n = 5
[6] = 640 mg/kg s.c., single dose 3 days post infection, n = 5

Clc1ccc2c(N[C@@H]3CCCC[C@H]3Nc3ccnc4cc(Cl)ccc34)ccnc2c1 (relative stereo) [Compound 3, ±-trans-N^1,N^2 -Bis (7-chloroquinolin-4-Yl) cyclohexane-1,2-diamine]
P. falciparum IC50 (nM) D-6 [1]: 1.0 nM | P. falciparum IC50 (nM) W-2 [2]: 1.4 nM | in vivo activity against P. berghei (in words) [3]: either active or curative | P. berghei T-C [3, 4]: 8.5 days | mice cured ([3]; 160 mg/kg): 4/5 | mice cured ([3]; 320 mg/kg): 5/5 | in vitro activity against P. falciparum (in words) (P. falciparum): most potent bisquinoline in vitro | Resistance Index (P. falciparum): 1.4 | IC50 (P. falciparum): < 6 nM | antimalarial activity (in words) (P. falciparum): exceptional activity

Clc1ccc2c(NN3CCN(Nc4ccnc5cc(Cl)ccc45)CC3)ccnc2c1 [1,4-bis(7-chloro-4-quinolylamino)piperazine]
activity against malaria / CQ-resistant malaria (in words) (CQ-resistant malaria): active against malaria | activity against P. berghei in mice, compared with CQ (P. berghei; mice, Singh et al., 1971): significantly more effective than is CQ against P. berghei in mice

CCN(CC)CCCC(C)Nc1ccnc2cc(Cl)ccc12 (stereo not shown) [CQ, chloroquine, reference compound]
P. berghei T-C ([3]; CQ, 40 mg/kg s.c., average of ten best data sets from WRAIR): 8.7 days | Resistance Index (P. falciparum): 11.2

CC(CNc1ccnc2cc(Cl)ccc12)Nc1ccnc2cc(Cl)ccc12 (stereo not shown) [Compound 2, N1,N2 -Bis(7-chloroquinolin-4-yl)propane1,2-diamine]
P. falciparum IC50 (nM) D-6 [1]: 3.5 nM | P. falciparum IC50 (nM) W-2 [2]: 3.9 nM | in vivo activity against P. berghei (in words) [3]: either active or curative | P. berghei T-C [3, 4]: 3.4 days | P. berghei T-C [3, 5]: 5.7 days | Resistance Index (P. falciparum): 1.1 | IC50 (P. falciparum): < 6 nM | antimalarial activity (in words) (P. falciparum): improved activity

Clc1ccc2c(NCCCNc3ccnc4cc(Cl)ccc34)ccnc2c1 [Compound 4, N^1,N^3 -Bis(7-chloroquinolin-4-yl)propane1,3-diamine]
P. falciparum IC50 (nM) D-6 [1]: 15.1 nM | P. falciparum IC50 (nM) W-2 [2]: 82.9 nM | in vivo activity against P. berghei (in words) [3]: without activity in vivo; also recorded: inactive in both screens | P. berghei T-C [3, 4]: 0.2 days | P. berghei T-C [3, 5]: 0.4 days | P. berghei T-C [3, 6]: 1.2 days | in vitro activity against P. falciparum (in words) (P. falciparum): approximately an order of magnitude less potent in vitro; also recorded: inactive in both screens | Resistance Index (P. falciparum): 5.5

Clc1ccc2c(NCCCCNc3ccnc4cc(Cl)ccc34)ccnc2c1 [Compound 5, N1,N4 -Bis(7-chloroquinolin-4-yl)butane-1,4-diamine]
P. falciparum IC50 (nM) D-6 [1]: 387 nM | P. falciparum IC50 (nM) W-2 [2]: 80.9 nM | in vivo activity against P. berghei (in words) [3]: without activity in vivo; also recorded: inactive in both screens | P. berghei T-C [3, 4]: 0.5 days | P. berghei T-C [3, 5]: 2.3 days | P. berghei T-C [3, 6]: 5.6 days | in vitro activity against P. falciparum (in words) (P. falciparum): approximately an order of magnitude less potent in vitro; also recorded: inactive in both screens | Resistance Index (P. falciparum): 0.2

Clc1ccc2c(NCCCCCNc3ccnc4cc(Cl)ccc34)ccnc2c1 [Compound 6, N^1, N^5 -Bis(7-chloroquinolin-4-yl)pentane-1,5-diamine]
P. falciparum IC50 (nM) D-6 [1]: 2.5 nM | P. falciparum IC50 (nM) W-2 [2]: 3.8 nM | in vivo activity against P. berghei (in words) [3]: either active or curative | P. berghei T-C [3, 4]: 1.0 days | P. berghei T-C [3, 5]: 5.1 days | Resistance Index (P. falciparum): 1.5 | IC50 (P. falciparum): < 6 nM

CC(CCCNc1ccnc2cc(Cl)ccc12)CNc1ccnc2cc(Cl)ccc12 (stereo not shown) [Compound 7, N^1, N^5 -Bis(7-chloroquinolin-4-yl)-2-methylpentane-1,5-diamine]
P. falciparum IC50 (nM) D-6 [1]: 2.7 nM | P. falciparum IC50 (nM) W-2 [2]: 3.0 nM | in vivo activity against P. berghei (in words) [3]: either active or curative | P. berghei T-C [3, 4]: 1.2 days | P. berghei T-C [3, 5]: 3.6 days | Resistance Index (P. falciparum): 1.1 | IC50 (P. falciparum): < 6 nM | antimalarial activity (in words) (P. falciparum): improved activity

Clc1ccc2c(NCCCCCCNc3ccnc4cc(Cl)ccc34)ccnc2c1 [Compound 8, N^1, N^6 -Bis(7-chloroquinolin-4-yl)hexane-1,6-diamine]
P. falciparum IC50 (nM) D-6 [1]: 21.1 nM | P. falciparum IC50 (nM) W-2 [2]: 23.4 nM | P. berghei T-C [3, 4]: 0.4 days | P. berghei T-C [3, 5]: 3.9 days | Resistance Index (P. falciparum): 1.1

Clc1ccc2c(NCCCCCCCNc3ccnc4cc(Cl)ccc34)ccnc2c1 [Compound 9, N^1, N^7 -Bis(7-chloroquinolin-4-Yl)heptane-1,7-diamine]
P. falciparum IC50 (nM) D-6 [1]: 1.9 nM | P. falciparum IC50 (nM) W-2 [2]: 4.3 nM | P. berghei T-C [3, 4]: 2.6 days | P. berghei T-C [3, 5]: 7.2 days | Resistance Index (P. falciparum): 2.3 | IC50 (P. falciparum): < 6 nM

Clc1ccc2c(NCCCCCCCCNc3ccnc4cc(Cl)ccc34)ccnc2c1 [Compound 10, N^1, N^8 -Bis(7-chloroquinolin-4-yl)octane-1,8diamine]
P. falciparum IC50 (nM) D-6 [1]: 5.6 nM | P. falciparum IC50 (nM) W-2 [2]: 3.1 nM | P. berghei T-C [3, 4]: -0.2 days | P. berghei T-C [3, 5]: 1.0 days | Resistance Index (P. falciparum): 0.6 | IC50 (P. falciparum): < 6 nM

Clc1ccc2c(NCCCCCCCCCNc3ccnc4cc(Cl)ccc34)ccnc2c1 [Compound 11, N^1, N^9 -Bis(7-chloroquinolin-4-yl)nonane-1,9-diamine]
P. falciparum IC50 (nM) D-6 [1]: 3.0 nM | P. falciparum IC50 (nM) W-2 [2]: 2.3 nM | P. berghei T-C [3, 4]: 3.1 days | P. berghei T-C [3, 5]: 7.4 days | P. berghei activity class (A = active, C = curative, with number of mice) ([3]; 640 mg/kg s.c., single dose, n = 5): A (active (A) when the mean survival time of the treated mice is twice that of the controls (>6.2 days)) | Resistance Index (P. falciparum): 0.8 | IC50 (P. falciparum): < 6 nM

Clc1ccc2c(NCCCCCCCCCCNc3ccnc4cc(Cl)ccc34)ccnc2c1 [Compound 12, N^1, N^10 -Bis(7-chloroquinolin-4-yl)decane-l,10-diamine]
P. falciparum IC50 (nM) D-6 [1]: 5.7 nM | P. falciparum IC50 (nM) W-2 [2]: 3.4 nM | P. berghei T-C [3, 4]: 0.2 days | P. berghei T-C [3, 5]: 0.2 days | P. berghei T-C [3, 6]: 0.6 days | Resistance Index (P. falciparum): 0.6

Clc1ccc2c(NCCCCCCCCCCCCNc3ccnc4cc(Cl)ccc34)ccnc2c1 [Compound 13, N^1 N^12 -Bis(7-chloroquinolin-4-yl)dodecane-1,12-diamine]
P. falciparum IC50 (nM) D-6 [1]: 59.7 nM | P. falciparum IC50 (nM) W-2 [2]: 30.8 nM | in vivo activity against P. berghei (in words) [3]: without activity in vivo; also recorded: inactive in both screens | P. berghei T-C [3, 4]: 0.0 days | P. berghei T-C [3, 5]: -0.2 days | P. berghei T-C [3, 6]: 0.0 days | in vitro activity against P. falciparum (in words) (P. falciparum): approximately an order of magnitude less potent in vitro; also recorded: inactive in both screens | Resistance Index (P. falciparum): 0.5

Clc1ccc2c(N3CCN(CCCN4CCN(c5ccnc6cc(Cl)ccc56)CC4)CC3)ccnc2c1 [PQ, piperaquine]
P. falciparum IC50 (nM) D-6 [1]: 8.3 nM | P. falciparum IC50 (nM) W-2 [2]: 16.1 nM | Resistance Index (P. falciparum): 1.9 | duration of action (CQ-resistant malaria): longer duration of action | toxicity (CQ-resistant malaria): less toxicity when compared to CQ | activity against malaria / CQ-resistant malaria (in words) (CQ-resistant malaria): active against malaria; also recorded: very effective against CQ-resistant malaria in China

CCN(CC)Cc1cc(Nc2ccnc3cc(Cl)ccc23)ccc1O [amodiaquine]
activity against malaria / CQ-resistant malaria (in words) (CQ-resistant malaria): active to various extents against CQ-resistant malaria

OC(CN1CCN(c2ccnc3cc(Cl)ccc23)CC1)CN1CCN(c2ccnc3cc(Cl)ccc23)CC1 [hydroxypiperaquine]
duration of action (CQ-resistant malaria): longer duration of action | toxicity (CQ-resistant malaria): less toxicity when compared to CQ | activity against malaria / CQ-resistant malaria (in words) (CQ-resistant malaria): active against malaria; also recorded: very effective against CQ-resistant malaria in China

OC(c1cc(C(F)(F)F)nc2c(C(F)(F)F)cccc12)C1CCCCN1 (stereo not shown) [mefloquine]
activity against malaria / CQ-resistant malaria (in words) (CQ-resistant malaria): active to various extents against CQ-resistant malaria

C=C[C@H]1C[N@@]2CC[C@H]1C[C@H]2[C@H](O)c1ccnc2ccc(OC)cc12 [quinine]
activity against malaria / CQ-resistant malaria (in words) (CQ-resistant malaria): active to various extents against CQ-resistant malaria

CCN(CC)Cc1cc(Nc2ccnc3cc(Cl)ccc23)ccc1OC(=O)CCC(=O)Oc1ccc(Nc2ccnc3cc(Cl)ccc23)cc1CN(CC)CC [succinic acid diester of amodiaquine]
activity against malaria / CQ-resistant malaria (in words) (CQ-resistant malaria): inactive against malaria

dichloroquinazine
activity against malaria / CQ-resistant malaria (in words) (CQ-resistant malaria): active against CQ-resistant falciparum malaria | resistance of P. berghei (P. berghei; CQ-resistant strain of P. berghei, Warhurst, 1966): Resistance to dichloroquinazine, however, is noted for a CQ-resistant strain of P. berghei
